Experimental data reported in patent US10259847B2, “Beta-hairpin peptidomimetics” (POLYPHOR AG, priority 2014, dated 2019).
Where a SMILES comes first, the peptide text is derived from it. Bridges are numbered along the chain shown (N, C = ends). [ ]: non-standard residue; d: D form. Tle = CC(C)(C)[C@H](N)C(=O)O; dDab = NCC[C@@H](N)C(=O)O; Orn = NCCC[C@H](N)C(=O)O; Dab = NCC[C@H](N)C(=O)O; Dap = NC[C@H](N)C(=O)O

Legend:
Format in all cases: cell-based
[1] = test system: human red blood cells (hRBC); experiment: Hemolysis of human red blood cells; conditions: red cells of human, 1 h, 100
Procedure: (§1) Stock solutions were kept at +4° C., light protected.
Percent hemolysis was calculated as follows: (OD540peptide/OD540H2O)×100%.

[2] = test system: Acinetobacter baumannii DSM 30008; conditions: DSM 30008
Procedure: as §1
(§2) The selective antimicrobial activities of the peptides were determined in 96-well plates (Greiner, polystyrene) by the standard NCCLS broth microdilution method (National Committee for Clinical Laboratory Standards 1993. Methods for dilution antimicrobial susceptibility tests for bacteria that grow aerobically, 3rd ed. Approved standard M7-A6; National Committee for Clinical laboratory standards, Wayne, Pa.) with slight modifications. Inocula of the microorganisms were diluted into Mueller-Hinton II (MH, cation adjusted) broth and compared with a 0.5 McFarland standard to give appr. 10^6 colony forming units (CFU)/mL. Aliquots (90 μl) of inoculate were added to 10 μl of MH broth+P-80 (Polysorbate 80, 0.002% final concentration) containing the peptide in serial two-fold dilutions. The following microorganisms were used to determine antibiotic selectivity of the peptides: Escherichia coli ATCC 25922, Klebsiella pneumoniae ATCC 13883 and Acinetobacter baumannii DSM 30008.

[3] = test system: Escherichia coli ATCC 25922; conditions: ATCC 25922
Procedure: as §1, §2

[4] = test system: Klebsiella pneumoniae ATCC 13883; conditions: ATCC 13883
Procedure: as §1, §2

Structure (SMILES)	Acinetobacter baumannii DSM 30008 MIC [2] [µg/mL]	Escherichia coli ATCC 25922 MIC [3] [µg/mL]	Klebsiella pneumoniae ATCC 13883 MIC [4] [µg/mL]	Hemolysis at 100 μg/mL [1] [%]
CC(C)C[C@@H]1NC(=O)[C@@H]2CCCN2C(=O)[C@H]2CCCN2C(=O)[C@H](CO)NC(=O)[C@@H]2CNC(=O)CC[C@H](NC1=O)C(=O)N[C@@H](Cc1ccc(O)cc1)C(=O)N[C@@H](CCN)C(=O)N[C@@H](CCCN)C(=O)N[C@@H](CCN)C(=O)N[C@@H](CCN)C(=O)N[C@@H](Cc1c[nH]c3ccccc13)C(=O)N[C@@H](CCN)C(=O)N[C@@H](C(C)(C)C)C(=O)N2 [Example 18, cyclo(-Leu-Glu-Tyr-Dab-Orn-Dab-Dab-Trp-Dab-tBuGly-Dap-Ser-^DPro-Pro-)] (HELM PEPTIDE1{L.E.Y.[Dab].[Orn].[Dab].[Dab].W.[Dab].[CC(C)(C)[C@H](N[*:1])C(=O)[*:2]].[O=C([C@H](CN[*:3])N[*:1])[*:2]].S.[dP].P}$PEPTIDE1,PEPTIDE1,2:R3-11:R3|PEPTIDE1,PEPTIDE1,1:R1-14:R2$$$V2.0)	3	2	0.5	0
CC(C)C[C@@H]1NC(=O)[C@@H]2CCCN2C(=O)[C@H]2CCCN2C(=O)[C@H](CO)NC(=O)[C@@H]2CCNC(=O)CC[C@H](NC1=O)C(=O)N[C@@H](Cc1ccc(O)cc1)C(=O)N[C@@H](CCN)C(=O)N[C@@H](CCCN)C(=O)N[C@H](CCN)C(=O)N[C@@H](CCN)C(=O)N[C@@H](Cc1c[nH]c3ccccc13)C(=O)N[C@@H](CCN)C(=O)N[C@@H](C(C)(C)C)C(=O)N2 [Example 19, cyclo(-Leu-Glu-Tyr-Dab-Orn-^DDab-Dab-Trp-Dab-tBuGly-Dab-Ser-^DPro-Pro-)] (HELM PEPTIDE1{L.E.Y.[Dab].[Orn].[NCC[C@@H](N[*:1])C(=O)[*:2]].[Dab].W.[Dab].[CC(C)(C)[C@H](N[*:1])C(=O)[*:2]].[Dab].S.[dP].P}$PEPTIDE1,PEPTIDE1,2:R3-11:R3|PEPTIDE1,PEPTIDE1,1:R1-14:R2$$$V2.0)	3	3	8	0
CC(C)C[C@@H]1NC(=O)[C@@H]2CCCN2C(=O)[C@H]2CCCN2C(=O)[C@H](CO)NC(=O)[C@@H]2CNC(=O)C[C@H](NC1=O)C(=O)N[C@@H](Cc1ccc(O)cc1)C(=O)N[C@@H](CCN)C(=O)N[C@@H](CCCN)C(=O)N[C@H](CCN)C(=O)N[C@@H](CCN)C(=O)N[C@@H](Cc1c[nH]c3ccccc13)C(=O)N[C@@H](CCN)C(=O)N[C@@H](C(C)(C)C)C(=O)N2 [Example 21, cyclo(-Leu-Asp-Tyr-Dab-Orn-^DDab-Dab-Trp-Dab-tBuGly-Dap-Ser-^DPro-Pro-)] (cyclo(LDY[Dab][Orn][dDab][Dab]W[Dab][Tle][Dap]S[dP]P); lactam 2-11)	4	2	0.5	1
CC(C)C[C@@H]1NC(=O)[C@@H]2CCCN2C(=O)[C@H]2CCCN2C(=O)[C@H](CO)NC(=O)[C@@H]2CCNC(=O)C[C@H](NC1=O)C(=O)N[C@@H](Cc1ccc(O)cc1)C(=O)N[C@@H](CCN)C(=O)N[C@@H](CCCN)C(=O)N[C@H](CCN)C(=O)N[C@@H](CCN)C(=O)N[C@@H](Cc1c[nH]c3ccccc13)C(=O)N[C@@H](CCN)C(=O)N[C@@H](C(C)(C)C)C(=O)N2 [Example 22, cyclo(-Leu-Asp-Tyr-Dab-Orn-^DDab-Dab-Trp-Dab-tBuGly-Dab-Ser-^DPro-Pro-)] (HELM PEPTIDE1{L.D.Y.[Dab].[Orn].[NCC[C@@H](N[*:1])C(=O)[*:2]].[Dab].W.[Dab].[CC(C)(C)[C@H](N[*:1])C(=O)[*:2]].[Dab].S.[dP].P}$PEPTIDE1,PEPTIDE1,2:R3-11:R3|PEPTIDE1,PEPTIDE1,1:R1-14:R2$$$V2.0)	1	0.5	0.5	1.5
CC(C)C[C@@H]1NC(=O)[C@@H]2CCCN2C(=O)[C@H]2CCCN2C(=O)[C@H](CO)NC(=O)[C@@H]2CCNC(=O)C[C@H](NC1=O)C(=O)N[C@@H](Cc1ccc(O)cc1)C(=O)N[C@@H](CCN)C(=O)N[C@@H](CCCN)C(=O)N[C@@H](CCN)C(=O)N[C@@H](CCN)C(=O)N[C@@H](Cc1c[nH]c3ccccc13)C(=O)N[C@@H](CCN)C(=O)N[C@@H](C(C)(C)C)C(=O)N2 [Example 23, cyclo(-Leu-Asp-Tyr-Dab-Orn-Dab-Dab-Trp-Dab-tBuGly-Dab-Ser-^DPro-Pro-)] (HELM PEPTIDE1{L.D.Y.[Dab].[Orn].[Dab].[Dab].W.[Dab].[CC(C)(C)[C@H](N[*:1])C(=O)[*:2]].[Dab].S.[dP].P}$PEPTIDE1,PEPTIDE1,2:R3-11:R3|PEPTIDE1,PEPTIDE1,1:R1-14:R2$$$V2.0)	1	1	0.5	0

Continued, in another order:

Acinetobacter baumannii DSM 30008 MIC [2] [µg/mL]	Escherichia coli ATCC 25922 MIC [3] [µg/mL]	Klebsiella pneumoniae ATCC 13883 MIC [4] [µg/mL]	Structure (SMILES)	Hemolysis at 100 μg/mL [1] [%]
1	0.5	0.5	CC(C)C[C@@H]1NC(=O)[C@@H]2CCCN2C(=O)[C@H]2CCCN2C(=O)[C@H](CO)NC(=O)[C@@H]2CCCCNC(=O)C[C@H](NC1=O)C(=O)N[C@@H](Cc1ccc(O)cc1)C(=O)N[C@@H](CCN)C(=O)N[C@@H](CCCN)C(=O)N[C@H](CCN)C(=O)N[C@@H](CCN)C(=O)N[C@@H](Cc1c[nH]c3ccccc13)C(=O)N[C@@H](CCN)C(=O)N[C@@H](C(C)(C)C)C(=O)N2 [Example 24, cyclo(-Leu-Asp-Tyr-Dab-Orn-^DDab-Dab-Trp-Dab-tBuGly-Lys-Ser-^DPro-Pro-)] (HELM PEPTIDE1{L.D.Y.[Dab].[Orn].[NCC[C@@H](N[*:1])C(=O)[*:2]].[Dab].W.[Dab].[CC(C)(C)[C@H](N[*:1])C(=O)[*:2]].K.S.[dP].P}$PEPTIDE1,PEPTIDE1,2:R3-11:R3|PEPTIDE1,PEPTIDE1,1:R1-14:R2$$$V2.0)	0.5
2	1	1	CC(C)C[C@@H]1NC(=O)[C@@H]2CCCN2C(=O)[C@H]2CCCN2C(=O)[C@H](CO)NC(=O)[C@@H]2CCCCNC(=O)C[C@H](NC1=O)C(=O)N[C@@H](Cc1ccc(O)cc1)C(=O)N[C@@H](CCN)C(=O)N[C@@H](CCCN)C(=O)N[C@@H](CCN)C(=O)N[C@@H](CCN)C(=O)N[C@@H](Cc1c[nH]c3ccccc13)C(=O)N[C@@H](CCN)C(=O)N[C@@H](C(C)(C)C)C(=O)N2 [Example 25, cyclo(-Leu-Asp-Tyr-Dab-Orn-Dab-Dab-Trp-Dab-tBuGly-Lys-Ser-^DPro-Pro-)] (HELM PEPTIDE1{L.D.Y.[Dab].[Orn].[Dab].[Dab].W.[Dab].[CC(C)(C)[C@H](N[*:1])C(=O)[*:2]].K.S.[dP].P}$PEPTIDE1,PEPTIDE1,2:R3-11:R3|PEPTIDE1,PEPTIDE1,1:R1-14:R2$$$V2.0)	0
